Source: US10173999B2, “Cyclic amine derivative and pharmaceutical use thereof” (Toray Industries, Inc., priority 2015, dated 2019)
Counter-ions that a name gives are not always drawn.

How the values were obtained:
[1] = tested on: Canine aortic smooth muscle cells; assay: Inducibility of cytoplasmic vacuolation in canine aortic smooth muscle cells; assay type: cell-based; parameters: key: Present: The term “present” in the tables means that cytoplasmic vacuolation was observed; Absent: the term “absent” means that cytoplasmic vacuolation was not observed; conditions: Concentration: 1.0 mmol/L, Treatment time: 24 hours
Protocol: As a test compound, the compound of Example 3, 9, 11, 12 or compounds of Comparative Examples 2 to 6 were used. Canine aortic smooth muscle cells (Canine Aortic Smooth Muscle Cells, supply source: Toyobo Co., Ltd.) or human aortic smooth muscle cells of (T/G HA-VSMG, supply source: ATCC) were treated with a test compound (1.0 or 1.2 mmol/L in concentration) for 24 hours or 2 weeks. The cells were stained with HE, immunohistochemically for LAMP-2 or toluidine blue, and thereafter the presence or absence of cytoplasmic vacuolation was determined by using an optical microscope.

[2] = tested on: mouse partial sciatic nerve ligation model (neuropathic pain); assay: Mouse partial sciatic nerve ligation model (Seltzer model), von Frey test; assay type: in vivo; conditions: for persistence of analgesic action / time of strongest analgesic action after oral administration / dose from which a statistically significant analgesic action started: oral administration; for persistence of analgesic action / time of strongest analgesic action after oral administration: von Frey test at 1, 2, 3 h; for dose from which a statistically significant analgesic action started: von Frey test
Protocol: The mouse partial sciatic nerve ligation model was prepared in accordance with the method of Seltzer et al. (Malmberg et al., Pain, vol. 76, p. 215-222, 1998).
Slc: ICR mice (5 weeks old, male; from Japan SLC, Inc.) or Cr1: CD1 (ICR) mice (5 weeks old, male; from CHARLES RIVER LABORATORIES JAPAN, INC.) were anesthetized with sodium pentobarbital (70 mg/kg, intraperitoneal administration). The sciatic nerve at the femoral region of the right hind paw of each mouse was exposed and triply ligated tightly with silk suture of 8-0 (from NATSUME SEISAKUSHO CO., LTD.) under a stereomicroscope so that only half thickness of the nerve was trapped in the ligature. A group of mice thus treated was designated as a partial sciatic nerve ligation group. A group of mice whose sciatic nerve was just exposed and not ligated was designated as a sham surgery group.
Evaluation of neuropathic pain (hereinafter referred to as von Frey test) was performed as follows. Mice were conditioned for at least one hour in an acrylic cage for measurement (from NATSUME SEISAKUSHO CO. LTD. or SHINANO SEISAKUSHO) placed on a wire net. Thereafter, using a filament (from North Coast Medical or neuroscience) which exerted a pressure of 0.16 g, the mice were subjected to mechanical tactile stimulus by applying the filament to the plantar surface of the right hind paw 3 times, each for 3 seconds, with an interval of 3 seconds.
Seven days after the sciatic nerve ligation surgery, the compound of Example 1, 2, 3, 4, 5, 7, 8, 9, 10, 11, 12 or 13 (10 mg/kg for each of the compounds of Example 1, 2, 3, 4, 5, 8, 10 and 13, 0.01 to 1 mg/kg for the compound of Example 7, 0.01 to 10 mg/kg for the compound of Example 9; 0.001 to 0.1 mg/kg for the compound of Example 11; and 0.01 to 1 mg/kg for the compound of Example 12) or pregabalin as a positive control (10 mg/kg; Bosche Scientific) was dissolved in distilled water and orally administered to mice of the partial sciatic nerve ligation group. The groups of the mice in the partial sciatic nerve ligation mouse to which the compound of Example 1, 2, 3, 4, 5, 7, 8, 9, 10, 11, 12 or 13 was administered were designated as a “partial sciatic nerve ligation+the compound of Example 1” group; a “partial sciatic nerve ligation+the compound of Example 2” group; a “partial sciatic nerve ligation+the compound of Example 3” group; a “partial sciatic nerve ligation+the compound of Example 4” group; a “partial sciatic nerve ligation+the compound of Example 5” group; a “partial sciatic nerve ligation+the compound of Example 7” group; a “partial sciatic nerve ligation+the compound of Example 8” group; a “partial sciatic nerve ligation+the compound of Example 9” group; a “partial sciatic nerve ligation+the compound of Example 10” group; a “partial sciatic nerve ligation+the compound of Example 11” group; a “partial sciatic nerve ligation+the compound of Example 12” group; and a “partial sciatic nerve ligation+the compound of Example 13” group, respectively. The partial sciatic nerve ligation mouse group to which pregabalin was administered was designated as a “partial sciatic nerve ligation+pregabalin” group. A group wherein distilled water was orally administered to the mice of the partial sciatic nerve ligation group was designated as a “partial sciatic nerve ligation+distilled water” group. A group wherein distilled water was orally administered to the mice of the sham surgery group was designated as a “sham surgery+distilled water” group.
The von Frey test was carried out before oral administration of a test compound (pre-value), one hour, two hours, and three hours after the oral administration of a test compound.
Slc: ICR mice (5 weeks old, male; Japan SLC, Inc.) were anesthetized with sodium pentobarbital (70 mg/kg, intraperitoneal administration).

Structure (SMILES) | Inducibility of cytoplasmic vacuolation [1] | persistence of analgesic action [2] | time of strongest analgesic action after oral administration [2] | time the analgesic action lasted after oral administration ([2]; dose of 0.1 mg/kg) [h] | time the analgesic action lasted after oral administration ([2]; from a dose of 0.001 mg/kg) [h] | analgesic action in von Frey test (total score) ([2]; mouse, in vivo) | dose from which a statistically significant analgesic action started [2] [µg/kg]
CC(C)n1ccnc1CCC(=O)N1CCC(N(C)C)CC1 [Comparative Example 6, 1-(4-(dimethylamino)piperidin-1-yl)-3-(1-isopropyl-1H-imidazol-2-yl)propan-1-one hydrochloride] | Present | tended to decrease 2 hours and 3 hours later | one | – | – | – | –
CN(C)C1CCN(C(=O)C[C@H](O)c2nccn2C)CC1 [Example 11, (S)-1-(4-(dimethylamino)piperidin-1-yl)-3-hydroxy-3-(1-methyl-1H-imidazol-2-yl)propan-1-one] | Absent | – | – | 3 | 2 | statistically significant analgesic action | 1
CN(C)C1CCN(C(=O)CCc2nccn2C)CC1 [Comparative Example 1, 1-(4-(dimethylamino)piperidin-1-yl)-3-(1-methyl-1H-imidazol-2-yl)propan-1-one hydrochloride] | – | tended to decrease 2 hours and 3 hours later | one | – | – | – | 10
